Assay results: patent US9045555B2, “Vaccine against amyloid folding intermediate” (priority 2008, dated 2015)

Key:
oligomeric Aβ 1-42 = assay: ELISA of sera of immunized mice, coating oligomeric Aβ 1-42 (cross-reactivity); type: in vivo, Balb/c mice; settings: in vitro ELISA
fibrillar Aβ 1-42 = assay: ELISA of sera of immunized mice, coating fibrillar Aβ 1-42 (cross-reactivity); type: in vivo, Balb/c mice; settings: in vitro ELISA
[1] = test system: Aβ deposits in post-mortem AD human brain tissue (hippocampus); assay: Immunohistochemical staining of human AD brain sections with sera of immunized mice; settings: mouse serum 1:300, hippocampus cryosections, Braak 5 or 6; positive control 6E10
Description: FIG. 6: Immunohistochemical staining of human brain section donor 99-30 (Braak 6) with a mouse serum (1:300) immunized with cyclo[Aβ(22-28)-YNGK]/tetanus toxoid conjugate (a) and the control monoclonal 6E10 (1:15.000) in (b). […] (Microscope: Leica DMRE fitted with a DC300 camera)
Human brain sections of the hippocampus of several donors with Alzheimer disease (Braak 5 or 6) were used (Netherlands Brain Bank). Cryosections (10 μm) were cut from unfixed directly frozen tissue, thaw-mounted, dried for 1 hour and stored in a sealed box at −20 C. For immunostaining, sections were fixed in 4% PFA-PBS solution for 10 min, washed in 0.05 M phosphate buffer (PB) for 10 min with 2 exchanges and blocked with 10% normal donkey serum (NDS)+0.4% TritonX100 in 0.05M PB for 1 hour at RT. The blocking solution was discarded and diluted mouse sera (1:300; first antibody) in 3% NDS+0.4% TritonX100 in 0.05 M PB was added and incubated 0/N at RT in a box with wet tissues. Sections were washed with 0.05M PB; at least 30 min with one or more exchanges. Then sections were incubated with Donkey-anti-Mouse˜Cy3 1:1400 in 0.05 M PB for 2 hours. Sections were washed with 0.05M PB; at least 30 min with one or more exchanges. Sections were sealed in Vectashield with Dapi (Vector). Mouse Monoclonal 6E10 to beta amyloid 1-17 (Abcam, Cambridge, UK) was used as positive control (1:15,000).

[2] = test system: conformational epitope of Aβ 1-42; assay: Antibody response in mice recognizing a conformational epitope of Aβ 1-42; type: in vivo; settings: epitope as expressed in monomer, soluble oligomer, fibrils or neurodegenerative plaques
[3] = ELISA of sera of immunized mice, coating homologous peptide-BSA conjugates (anti-peptide titre); type: in vivo, Balb/c mice

Substance | cross-reaction of elicited antibodies with Aβ (1-42)-oligomers (oligomeric Aβ 1-42) | cross-reaction of elicited antibodies with Aβ (1-42)-fibrils (fibrillar Aβ 1-42) | recognition of Aβ deposits / plaques in AD human brain tissue by elicited antibodies [1] | induction of an antibody response in mice specifically recognizing a conformational epitope of Aβ 1-42 [2] | antipeptide antibody titers / antibody response to the immunizing peptide [3]
cyclo[EDVGSNKYNGK*] (cyclo(EDVGSNKYNGK(tetanus toxoid))) [group 9, tetanus toxoid conjugate of the cyclic peptide [Aβ(22-28)-YNGK*]] | cross-react | cross-react | recognize | able to induce an antibody response | –
Ac-K*EDVGSNKYNG-NH2 (Ac-K(tetanus toxoid)EDVGSNKYNG-NH2) [group 3, tetanus toxoid conjugate of the linear N-acetylated peptide amide] | did not recognize | did not recognize | – | – | good
